Results as given in US20130131178A1, “USE OF OXALOACETATE IN THE TREATMENT OF ISCHAEMIA” (UNIVERSIDADE DE SANTIAGO DE COMPOSTELA, priority 2010, published 2013).

Tests used:
Assay type in all cases: in vivo, male Sprague-Dawley (SD) rats
[1] = system: blood glutamate levels; experiment: Effect of oxaloacetate administration on blood glutamate and aspartate levels in healthy animals; design: effect on glutamate levels: dose or concentration left out as unconfirmed
Method: The oxaloacetate used (Sigma-Aldrich, Ref, 171263, 95%) was dissolved in saline solution to a concentration of 10 mg/mL and the pH adjusted to 7.4. […]
(§1) The study protocols for male Sprague-Dawley (SD) rats (Charles River Laboratories; France) weighing between 300 and 350 g were approved by the Animal Use and Care Committee at the Hospital de Santiago de Compostela.
Anaesthesia was induced by inhalation of 5% sevoflurane in a mixture of nitrous oxide and oxygen (70/30). A rectal temperature of 37.5° C. was maintained. Glucose levels (180-220 mg/dL) were analysed prior to the intervention.
(§2) Aspartate and glutamate levels in blood were analysed according to the method described in the following reference (White, J. A., R. J. Hart, and J. C. Fry, An evaluation of the Waters Pico-Tag system for the amino-acid analysis of food materials. J Automat Chem, 1986. 8(4): p. 170-7).
Likewise, no changes in aspartate levels were observed (FIG. 1b).
This increase in aspartate levels confirms that glutamate is being metabolised by the enzyme GOT as a result of oxaloacetate treatment.
The […] and aspartate levels in blood were established in a control group treated with saline.

[2] = system: Middle cerebral artery occlusion (MCAO) model of cerebral ischaemia; experiment: Infarct and oedema volumes by magnetic resonance imaging in the MCAO model of cerebral ischaemia; details: 3.5 mg/100 g IV 90 minutes post-occlusion
Method: The oxaloacetate used (Sigma-Aldrich, Ref, 171263, 95%) was dissolved in saline solution to a concentration of 10 mg/mL and the pH adjusted to 7.4. As the average weight of the experimental animals was 325 g and the dose administered was 3.5 mg/100 g body weight, each animal received an average volume of 1.2 mL of 10 mg/mL oxaloacetate. The study protocols for male Sprague-Dawley (SD) rats (Charles River Laboratories; France) weighing between 300 and 350 g were approved by the Animal Use and Care Committee at the Hospital de Santiago de Compostela. Anaesthesia was induced by inhalation of 5% sevoflurane in a mixture of nitrous oxide and oxygen (70/30). A rectal temperature of 37.5° C. was maintained. Glucose levels (180-220 mg/dL) were analysed prior to the intervention. Middle cerebral artery occlusion (MCAO) was used as a model of cerebral ischaemia, as described in the literature (Longa, E. Z., et al., Reversible middle cerebral artery occlusion without craniectomy in rats. Stroke, 1989. 20(1): p. 84-91). […] The infarct and oedema volumes were determined by magnetic resonance imaging. […] The blood glutamate levels and infarct and oedema volumes were determined in both groups. […]

[3] = system: blood glutamate levels; experiment: Effect of oxaloacetate on blood glutamate levels in an animal model of focal ischaemia (MCAO); details: 3.5 mg/100 g IV 90 minutes post-occlusion, 4 hours post-occlusion
Method: The oxaloacetate used (Sigma-Aldrich, Ref, 171263, 95%) was dissolved in saline solution to a concentration of 10 mg/mL and the pH adjusted to 7.4. As the average weight of the experimental animals was 325 g and the dose administered was 3.5 mg/100 g body weight, each animal received an average volume of 1.2 mL of 10 mg/mL oxaloacetate.
as §1
Anaesthesia was induced by inhalation of 5% sevoflurane in a mixture of nitrous oxide and oxygen (70/30). A rectal temperature of 37.5° C. was maintained. Glucose levels (180-220 mg/dL) were analysed prior to the intervention. […]
as §2
Two groups were designed: an MCAO group treated with saline (control group) and an MCAO group treated with 3.5 mg/100 g oxaloacetate IV 90 minutes post-occlusion. The blood glutamate levels and infarct and oedema volumes were determined in both groups. […]

What does the source list for O=C(O)CC(=O)C(=O)O [oxaloacetate]?
effect on glutamate levels ([1]; administration via bolus (IV)): no effect; decrease in serum glutamate levels with respect to basal levels ([1]; healthy animals, 3.5 mg/100 g IV, two hours post-administration): 60%; infarct volume smaller than in the control group ([2]; 24 hours post-ischaemia): approximately 40%; decrease of infarct volume ([2]; at 7 days): 80%; drop of blood glutamate levels below basal levels [3]: 50%
